# Key:
# [1] = tested on: SF-268; test: Growth inhibition of human SF268 cells assessed as cell growth at 0.1 uM incubated for 48 hrs by sulforhodamine B assay relative to control; assay type: functional; settings: SF-268, 48 h, read-out: Activity
# [2] = tested on: HOP-62; test: Growth inhibition of human HOP62 cells assessed as cell growth at 1 uM incubated for 48 hrs by sulforhodamine B assay relative to control; assay type: functional; settings: HOP-62, 48 h, read-out: Activity
# [3] = tested on: OVCAR-3; test: Growth inhibition of human OVCAR3 cells assessed as cell growth at 0.01 uM incubated for 48 hrs by sulforhodamine B assay relative to control; assay type: functional; settings: OVCAR-3, 48 h, read-out: Activity
# [4] = tested on: MDA-MB-468; test: Growth inhibition of human MDA-MB-468 cells assessed as cell growth at 100 uM incubated for 48 hrs by sulforhodamine B assay relative to control; assay type: functional; settings: MDA-MB-468, 48 h, read-out: Activity
# [5] = tested on: SF-295; test: Growth inhibition of human SF295 cells assessed as cell growth at 0.01 uM incubated for 48 hrs by sulforhodamine B assay relative to control; assay type: functional; settings: SF-295, 48 h, read-out: Activity
# [6] = tested on: PC-3; test: Growth inhibition of human PC3 cells incubated for 48 hrs by sulforhodamine B assay; assay type: functional, cell-based; settings: PC-3, 48 h
# [7] = tested on: SW-620; test: Growth inhibition of human SW620 cells assessed as cell growth at 0.1 uM incubated for 48 hrs by sulforhodamine B assay relative to control; assay type: functional; settings: SW-620, 48 h, read-out: Activity
# [8] = tested on: SK-MEL-5; test: Growth inhibition of human SK-MEL-5 cells assessed as cell growth at 0.1 uM incubated for 48 hrs by sulforhodamine B assay relative to control; assay type: functional; settings: SK-MEL-5, 48 h, read-out: Activity
# [9] = tested on: PC-3; test: Growth inhibition of human PC3 cells assessed as cell growth at 100 uM incubated for 48 hrs by sulforhodamine B assay relative to control; assay type: functional; settings: PC-3, 48 h, read-out: Activity
# [10] = tested on: SK-MEL-28; test: Growth inhibition of human SK-MEL-28 cells incubated for 48 hrs by sulforhodamine B assay; assay type: functional, cell-based; settings: SK-MEL-28, 48 h
# [11] = tested on: MDA-MB-468; test: Growth inhibition of human MDA-MB-468 cells assessed as cell growth at 0.01 uM incubated for 48 hrs by sulforhodamine B assay relative to control; assay type: functional; settings: MDA-MB-468, 48 h, read-out: Activity
# [12] = tested on: NCI-H23; test: Growth inhibition of human NCI-H23 cells incubated for 48 hrs by sulforhodamine B assay; assay type: functional, cell-based; settings: NCI-H23, 48 h
# [13] = tested on: M14; test: Growth inhibition of human M14 cells incubated for 48 hrs by sulforhodamine B assay; assay type: functional, cell-based; settings: M14, 48 h
# [14] = tested on: SNB-19; test: Growth inhibition of human SNB19 cells assessed as cell growth at 100 uM incubated for 48 hrs by sulforhodamine B assay relative to control; assay type: functional; settings: SNB-19, 48 h, read-out: Activity
# [15] = tested on: NCI-H23; test: Growth inhibition of human NCI-H23 cells assessed as cell growth at 1 uM incubated for 48 hrs by sulforhodamine B assay relative to control; assay type: functional; settings: NCI-H23, 48 h, read-out: Activity
# [16] = tested on: T47D; test: Growth inhibition of human T47D cells assessed as cell growth at 100 uM incubated for 48 hrs by sulforhodamine B assay relative to control; assay type: functional; settings: read-out: Activity
# [17] = tested on: HT-29; test: Growth inhibition of human HT-29 cells assessed as cell growth at 1 uM incubated for 48 hrs by sulforhodamine B assay relative to control; assay type: functional; settings: HT-29, 48 h, read-out: Activity
# [18] = tested on: SR; test: Growth inhibition of human SR cells assessed as cell growth at 0.01 uM incubated for 48 hrs by sulforhodamine B assay relative to control; assay type: functional; settings: read-out: Activity
# [19] = tested on: HCC 2998; test: Growth inhibition of human HCC2998 cells assessed as cell growth at 0.01 uM incubated for 48 hrs by sulforhodamine B assay relative to control; assay type: functional; settings: HCC 2998, 48 h, read-out: Activity
# [20] = tested on: HCT-15; test: Growth inhibition of human HCT15 cells incubated for 48 hrs by sulforhodamine B assay; assay type: functional, cell-based; settings: HCT-15, 48 h
# [21] = tested on: HL-60(TB); test: Growth inhibition of human HL-60(TB) cells assessed as cell growth at 1 uM incubated for 48 hrs by sulforhodamine B assay relative to control; assay type: functional; settings: HL-60, 48 h, read-out: Activity
# [22] = tested on: HCC 2998; test: Growth inhibition of human HCC2998 cells incubated for 48 hrs by sulforhodamine B assay; assay type: functional, cell-based; settings: HCC 2998, 48 h
# [23] = tested on: HCT-116; test: Growth inhibition of human HCT116 cells assessed as cell growth at 100 uM incubated for 48 hrs by sulforhodamine B assay relative to control; assay type: functional; settings: HCT-116, 48 h, read-out: Activity
# [24] = tested on: OVCAR-8; test: Growth inhibition of human OVCAR8 cells assessed as cell growth at 1 uM incubated for 48 hrs by sulforhodamine B assay relative to control; assay type: functional; settings: OVCAR-8, 48 h, read-out: Activity
# [25] = tested on: NCI-H460; test: Growth inhibition of human NCI-H460 cells assessed as cell growth at 0.01 uM incubated for 48 hrs by sulforhodamine B assay relative to control; assay type: functional; settings: NCI-H460, 48 h, read-out: Activity
# [26] = tested on: HL-60(TB); test: Growth inhibition of human HL-60(TB) cells assessed as cell growth at 0.01 uM incubated for 48 hrs by sulforhodamine B assay relative to control; assay type: functional; settings: HL-60, 48 h, read-out: Activity
# [27] = tested on: SK-MEL-5; test: Growth inhibition of human SK-MEL-5 cells assessed as cell growth at 0.01 uM incubated for 48 hrs by sulforhodamine B assay relative to control; assay type: functional; settings: SK-MEL-5, 48 h, read-out: Activity
# [28] = tested on: MOLT-4; test: Growth inhibition of human MOLT4 cells assessed as cell growth at 100 uM incubated for 48 hrs by sulforhodamine B assay relative to control; assay type: functional; settings: MOLT-4, 48 h, read-out: Activity
# [29] = tested on: LOX IMVI; test: Growth inhibition of human LOXIMVI cells assessed as cell growth at 0.1 uM incubated for 48 hrs by sulforhodamine B assay relative to control; assay type: functional; settings: read-out: Activity
# [30] = read-out: LC50 (the source's name)
# [31] = read-out: pLC50 (the source's name) (converted)
structure (smiles),measurement,setting,value
COc1cc(Cl)cc(-c2nn(-c3cccc(NC(=O)Nc4cccc(C(F)(F)F)c4)c3)cc2-c2ccncc2)c1,growth at 0.1 µM,[1],94%
same,growth at 1 µM,[2],85%
same,growth at 0.01 µM,[3],100%
same,growth at 100 µM,[4],-34%
same,growth at 0.01 µM,[5],94%
same,IC50,[6],0.42 µM
same,GI50,[6]; read-out: GI50,0.417 µM
same,CC50,[6]; [30],> 100 µM
same,TGI,[6]; read-out: TGI,32 µM
same,GI50,[6]; read-out: pGI50 (converted),0.417 µM
same,CC50,[6]; [31],> 100 µM
same,TGI,[6]; read-out: pTGI (converted),3.24 µM
same,growth at 0.1 µM,[7],100%
same,growth at 0.1 µM,[8],98%
same,growth at 100 µM,[9],-35%
same,GI50,[10]; read-out: GI50,2.53 µM
same,CC50,[10]; [30],> 100 µM
same,TGI,[10]; read-out: TGI,12.1 µM
same,GI50,[10]; read-out: pGI50 (converted),2.51 µM
same,CC50,[10]; [31],> 100 µM
same,TGI,[10]; read-out: pTGI (converted),12 µM
same,growth at 0.01 µM,[11],94%
same,GI50,[12]; read-out: GI50,1.76 µM
same,LC50,[12]; read-out: LC50,> 100 µM
same,TGI,[12]; read-out: TGI,55.9 µM
same,GI50,[12]; read-out: pGI50 (converted),1.78 µM
same,LC50,[12]; read-out: pLC50 (converted),> 100 µM
same,TGI,[12]; read-out: pTGI (converted),6.76 µM
same,GI50,[13]; read-out: GI50,1.34 µM
same,CC50,[13]; [30],15.3 µM
same,TGI,[13]; read-out: TGI,30.5 µM
same,GI50,[13]; read-out: pGI50 (converted),1.35 µM
same,CC50,[13]; [31],16.2 µM
same,TGI,[13]; read-out: pTGI (converted),3.98 µM
same,growth at 100 µM,[14],-13%
same,growth at 1 µM,[15],71%
same,growth at 100 µM,[16],-25%
same,growth at 1 µM,[17],65%
same,growth at 0.01 µM,[18],89%
same,growth at 0.01 µM,[19],98%
same,GI50,[20]; read-out: GI50,1.34 µM
same,CC50,[20]; [30],50 µM
same,TGI,[20]; read-out: TGI,10.6 µM
same,GI50,[20]; read-out: pGI50 (converted),1.35 µM
same,CC50,[20]; [31],50.1 µM
same,TGI,[20]; read-out: pTGI (converted),10.7 µM
same,growth at 1 µM,[21],81%
same,GI50,[22]; read-out: GI50,3.47 µM
same,CC50,[22]; [30],90.1 µM
same,TGI,[22]; read-out: TGI,14 µM
same,GI50,[22]; read-out: pGI50 (converted),3.47 µM
same,CC50,[22]; [31],89.1 µM
same,TGI,[22]; read-out: pTGI (converted),14.1 µM
same,growth at 100 µM,[23],-81%
same,growth at 1 µM,[24],54%
same,growth at 0.01 µM,[25],102%
same,growth at 0.01 µM,[26],96%
same,growth at 0.01 µM,[27],96%
same,growth at 100 µM,[28],-36%
same,growth at 0.1 µM,[29],97%
COc1cc(Cl)cc(-c2nn(-c3cccc(NC(=O)c4cccc(C(F)(F)F)c4)c3)cc2-c2ccncc2)c1,growth at 0.1 µM,[1],100%
same,growth at 1 µM,[2],101%
same,growth at 0.01 µM,[3],105%
same,growth at 100 µM,[4],28%
same,growth at 0.01 µM,[5],98%
same,IC50,[6],2.71 µM
same,GI50,[6]; read-out: GI50,2.71 µM
same,CC50,[6]; [30],> 100 µM
same,TGI,[6]; read-out: TGI,> 100 µM
same,GI50,[6]; read-out: pGI50 (converted),2.69 µM
same,CC50,[6]; [31],> 100 µM
same,TGI,[6]; read-out: pTGI (converted),> 100 µM
same,growth at 0.1 µM,[7],99%
same,growth at 0.1 µM,[8],95%
same,growth at 100 µM,[9],17%
same,GI50,[10]; read-out: GI50,> 100 µM
same,CC50,[10]; [30],> 100 µM
same,TGI,[10]; read-out: TGI,> 100 µM
same,GI50,[10]; read-out: pGI50 (converted),> 100 µM
same,CC50,[10]; [31],> 100 µM
same,TGI,[10]; read-out: pTGI (converted),> 100 µM
same,growth at 0.01 µM,[11],91%
same,GI50,[12]; read-out: GI50,5.74 µM
same,LC50,[12]; read-out: LC50,> 100 µM
same,TGI,[12]; read-out: TGI,> 100 µM
same,GI50,[12]; read-out: pGI50 (converted),6.76 µM
same,LC50,[12]; read-out: pLC50 (converted),> 100 µM
same,TGI,[12]; read-out: pTGI (converted),> 100 µM
same,GI50,[13]; read-out: GI50,0.09 µM
same,CC50,[13]; [30],> 100 µM
same,TGI,[13]; read-out: TGI,> 100 µM
same,GI50,[13]; read-out: pGI50 (converted),6.03 µM
same,CC50,[13]; [31],> 100 µM
same,TGI,[13]; read-out: pTGI (converted),> 100 µM
same,growth at 100 µM,[14],72%
same,growth at 1 µM,[15],94%
same,growth at 100 µM,[16],15%
same,growth at 1 µM,[17],70%
same,growth at 0.01 µM,[18],57%
same,growth at 0.01 µM,[19],108%
same,GI50,[20]; read-out: GI50,3.36 µM
same,CC50,[20]; [30],> 100 µM
same,TGI,[20]; read-out: TGI,> 100 µM
same,GI50,[20]; read-out: pGI50 (converted),3.31 µM
same,CC50,[20]; [31],> 100 µM
same,TGI,[20]; read-out: pTGI (converted),> 100 µM
same,growth at 1 µM,[21],105%
same,GI50,[22]; read-out: GI50,5.56 µM
same,CC50,[22]; [30],> 100 µM
same,TGI,[22]; read-out: TGI,> 100 µM
same,GI50,[22]; read-out: pGI50 (converted),6.61 µM
same,CC50,[22]; [31],> 100 µM
same,TGI,[22]; read-out: pTGI (converted),> 100 µM
same,growth at 100 µM,[23],22%
same,growth at 1 µM,[24],93%
same,growth at 0.01 µM,[25],101%
same,growth at 0.01 µM,[26],59%
same,growth at 0.01 µM,[27],97%
same,growth at 100 µM,[28],27%
same,growth at 0.1 µM,[29],95%
